From patent US10005816B2, “Peptides and their use in food and beverage” (priority 2014, dated 2018)
Where no end group is shown, it is not given here.

Assay: Sensory evaluation of peptide additive in coffee brew by five expert panelists (Example 4)
Conditions: 40 ppm additive in coffee brew; FOLGERS Classic Decaf roast and ground coffee; versus control brew without additive
Method: Coffee brews were prepared using a commercially available roast and ground coffee product (FOLGERS® brand Classic Decaf coffee) using a standard automatic drip coffee brewer (i.e., MR. COFFEE®). The brewing process was carried out as instructed on the coffee package. Each single peptide in Example 1 and peptide compositions in Examples 2 and 3 were mixed into to the coffee brew. Five expert panelists evaluated the effect of peptide additive on coffee flavor profile.

Row | Substance | Sensory Evaluation
1 | EELLPE [Peptide (Ie)] | Stronger than control, fuller
2 | Pro-Pro-Thr-Leu-Leu (PPTLL) [Peptide (Ic)] | Stronger than control, bitter
3 | LACHLL [Peptide (Id)] | Strange non-coffee taste charcoal,
4 | Pro-Thr-Pro-Leu-Leu (PTPLL) [Peptide (Ia)] | Stronger than control, very bitter
